One assay concerns the target human cathepsin K (UniProt P43236, Y175D/V274L, species not given). Description: Cathepsin K Assay. The settings on record: IP from dose response curve; Z-Leu-Arg-AMC substrate, pH 5.5; read-out: hrbCat K (IP (nM)). It counts as biochemical.
A further assay concerns the target T1, human cathepsin F (Homo sapiens, UniProt Q9UBX1).
T1 sequence (Q9UBX1 271-484): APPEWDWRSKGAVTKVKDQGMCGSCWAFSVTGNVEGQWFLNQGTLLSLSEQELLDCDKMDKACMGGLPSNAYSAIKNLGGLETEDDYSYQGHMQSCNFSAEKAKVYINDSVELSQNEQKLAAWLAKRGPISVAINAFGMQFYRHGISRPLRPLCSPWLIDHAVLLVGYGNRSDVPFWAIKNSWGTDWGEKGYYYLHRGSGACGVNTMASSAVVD
Briefly: Cathepsin F Assay. Format: biochemical. The settings on record: IP from dose response curve; Z-Phe-Arg-AMC substrate, pH 5.5; read-out: hCat F (IP (nM)). How it is done:
Serial dilutions (1/3) from 500 μM down to 0.025 μM of test compounds were prepared in dimethyl sulfoxide (DMSO). Then 0.5 μL of DMSO from each dilution were added to 18.75 μL of assay buffer (MES, 50 mM (pH 5.5); EDTA, 2.5 mM; DTT, 2.5 mM and 10% DMSO) containing human cathepsin F (10 nM) in assay buffer solution. The assay solutions were mixed for 5-10 seconds on a shaker plate and incubated for 15 minutes at room temperature. Z-Phe-Arg-AMC (8 μM) in 6.25 μL of assay buffer was added to the assay solutions. Hydrolysis of the coumarin leaving group (AMC) was followed by spectrofluorometry (Exλ=360 nm; Emλ=460 nm) for 20 minutes. Percent of inhibition were calculated by fitting experimental values to standard mathematical model for dose response curve.

Turning to `CS(=O)(=O)c1ccc(-c2cn(-c3ccccc3)nc2C2CCC(F)(F)CC2C(=O)NCC#N)cc1` (racemic) [Example 76, (1R,2R and 1S,2S)-N-(cyanomethyl)-5,5-difluoro-2-(4-(4-(methylsulfonyl)phenyl)-1-phenyl-1H-pyrazol-3-yl)cyclohexanecarboxamide], the IC50 at human cathepsin K is 0.8 nM; at human cathepsin F, 11 nM.
For `CS(=O)(=O)c1ccc(-c2cn(-c3ccc(F)cc3)nc2C2CCC(F)(F)CC2C(=O)NCC#N)cc1` (racemic) [Example 77, (1R,2R and 1S,2S)-N-(cyanomethyl)-5,5-difluoro-2-(1-(4-fluorophenyl)-4-(4-(methylsulfonyl)phenyl)-1H-pyrazol-3-yl)cyclohexanecarboxamide], in that order: 1.24 nM and 9 nM.
For `CS(=O)(=O)c1ccc(-c2cn(-c3ccc4ccccc4c3)nc2C2CCC(F)(F)CC2C(=O)NCC#N)cc1` (racemic) [Example 78, (1R,2R and 1S,2S)-N-(cyanomethyl)-5,5-difluoro-2-(4-(4-(methylsulfonyl)phenyl)-1-(naphthalen-2-yl)-1H-pyrazol-3-yl)cyclohexanecarboxamide], in that order: 2.12 nM and 4 nM.
With `N#CCNC(=O)C1CC(F)(F)CCC1c1nn(-c2ccc(F)cc2)cc1-c1ccc(N2CCS(=O)(=O)CC2)cc1` (racemic) [Example 79, (1R,2R and 1S,2S)-N-(cyanomethyl)-2-(4-(4-(1,1-dioxidothiomorpholino)phen-yl)-1-(4-fluorophenyl)-1H-pyrazol-3-yl)-5,5-difluorocyclohexanecarbox-amide], the values for the IC50 at human cathepsin K and at human cathepsin F were 0.81 nM and 17 nM, respectively.
On the same counts, the results for `N#CC1(NC(=O)C2CC(F)(F)CCC2c2nn(-c3ccc(F)cc3)cc2-c2ccc(N3CCS(=O)(=O)CC3)cc2)CC1` (racemic) [Example 80, (1R,2R and 1S,2S)-N-(1-cyanocyclopropyl)-2-(4-(4-(1,1-dioxidothiomorpholino)phen-yl)-1-(4-fluorophenyl)-1H-pyrazol-3-yl)-5,5-difluorocyclohexanecarbox-amide] are 1 nM and 35 nM.
For `N#CC1(NC(=O)[C@@H]2CCCC[C@H]2c2nn(-c3ccc(C(O)C(F)(F)F)cc3)cc2-c2ccc(N3CCS(=O)(=O)CC3)cc2)CC1` (mixture of isomers) [Example 113, (1R,2R)-N-(1-cyanocyclopropyl)-2-(4-(4-(1,1-dioxidothiomorpholino)phen-yl)-1-(4-((S and R)-2,2,2-trifluoro-1-hydroxyethyl)phenyl)-1H-pyrazol-3-yl)cyclohexanecarboxamide], in that order: 0.88 nM and 360 nM.
On the same counts, the results for `N#CC1(NC(=O)[C@@H]2CC3CC3C[C@H]2c2nn(-c3ccc(F)cc3)cc2-c2ccc(N3CCS(=O)(=O)CC3)cc2)CC1` (single isomer, unassigned) [Example 3, (1S or 1R,3R,4R,6R or 6S)—N-(1-Cyanocyclopropyl)-4-(4-(4-(1,1-dioxidothiomorpholino)phenyl)-1-(4-fluorophenyl)-1H-pyrazol-3-yl)bicyclo[4.1.0]heptane-3-carboxamide] are 0.84 nM and 333 nM.
As for `N#CC1(NC(=O)[C@@H]2CC3CC3C[C@H]2c2nn(-c3ccc(F)cc3)cc2-c2ccc(N3CCS(=O)(=O)CC3)cc2)CC1` (single isomer, unassigned) [Example 4, (1R or 1S,3R,4R,6S or 6R)—N-(1-Cyanocyclopropyl)-4-(4-(4-(1,1-dioxidothiomorpholino)phenyl)-1-(4-fluorophenyl)-1H-pyrazol-3-yl)bicyclo[4.1.0]heptane-3-carboxamide], the IC50 on human cathepsin K worked out at 0.93 nM; at human cathepsin F it was 258 nM.
On to `CC(C#N)NC(=O)[C@@H]1CCC(F)(F)C[C@H]1c1nn(-c2ccc(F)cn2)cc1-c1ccc(N2CCS(=N)(=O)CC2)cc1` (single isomer, unassigned) [Example 23, (1R,2R)-N-((S or R)-1-cyanoethyl)-4,4-difluoro-2-(1-(5-fluoropyridin-2-yl)-4-(4-(1-imino-1-oxidothiomorpholino)phenyl)-1H-pyrazol-3-yl)cyclohexanecarboxamide], for which the values for the IC50 at human cathepsin K and on human cathepsin F were 1.07 nM and 348 nM, respectively.
On the same counts, the results for `CN=S1(=O)CCN(c2ccc(-c3cn(-c4ccc(F)cn4)nc3[C@@H]3CC(F)(F)CC[C@H]3C(=O)NC(C)C#N)cc2)CC1` (single isomer, unassigned) [Example 25, (1R,2R)-N-((S or R)-1-cyanoethyl)-4,4-difluoro-2-(1-(5-fluoropyridin-2-yl)-4-(4-(1-(methylimino)-1-oxidothiomorpholino)phenyl)-1H-pyrazol-3-yl)cyclohexanecarboxamide] are 0.52 nM and 431 nM.
For `N#CC(CC(F)(F)F)NC(=O)[C@@H]1CC(F)(F)CC[C@H]1c1nn2ccccc2c1-c1ccc(N2CCS(=O)(=O)CC2)cc1` (single isomer, unassigned) [Example 74, (1R,2R)-N-((S or R)-1-cyano-3,3,3-trifluoropropyl)-2-(3-(4-(1,1-dioxidothiomorpholino)phen-yl)pyrazolo[1,5-a]pyridin-2-yl)-5,5-difluorocyclohexanecarbox-amide], the values for the IC50 on human cathepsin K and at human cathepsin F were 7.69 nM and 252 nM, respectively.
For `N#CC(CC(F)(F)F)NC(=O)[C@@H]1CC(F)(F)CC[C@H]1c1nn2ccccc2c1-c1ccc(N2CCS(=O)(=O)CC2)cc1` (single isomer, unassigned) [Example 75, (1R,2R)-N-((R or S)-1-cyano-3,3,3-trifluoropropyl)-2-(3-(4-(1,1-dioxidothiomorpholino)phen-yl)pyrazolo[1,5-a]pyridin-2-yl)-5,5-difluorocyclohexanecarbox-amide], in that order: 0.99 nM and 21 nM.
For `CC1(C)CCC(C(=O)NC2(C#N)CC2)C(c2nn(-c3ccc(F)cc3)cc2-c2ccc(N3CCS(=O)(=O)CC3)cc2)C1` (single isomer, unassigned) [Example 116, (1R,2R or 1S,2S)-N-(1-cyanocyclopropyl)-2-(4-(4-(1,1-dioxidothiomorpholino)phen-yl)-1-(4-fluorophenyl)-1H-pyrazol-3-yl)-4,4-dimethylcyclohexanecarbox-amide], in that order: 328 nM and 1200 nM.
On the same counts, the results for `CC1(C)CC[C@@H](c2nn(-c3ccc(F)cc3)cc2-c2ccc(N3CCS(=O)(=O)CC3)cc2)[C@H](C(=O)NC2(C#N)CC2)C1` (single isomer, unassigned) [Example 127, (1S,2S) or (1R,2R)-N-(1-cyanocyclopropyl)-2-(4-(4-(1,1-dioxidothiomorpholino)phen-yl)-1-(4-fluorophenyl)-1H-pyrazol-3-yl)-5,5-dimethylcyclohexanecarbox-amide] are 1.5 nM and 632 nM.
For `N#CC1(NC(=O)[C@@H]2CC3CC3C[C@H]2c2nn(-c3ccc(F)cn3)cc2-c2ccc(N3CCS(=O)(=O)CC3)cc2)CC1` (single isomer, unassigned) [Example 152, (1S,3R,4R,6R) or (1R,3R,4R,6S)-N-(1-cyanocyclopropyl)-4-(4-(4-(1,1-dioxidothiomorpholino)phen-yl)-1-(5-fluoropyridin-2-yl)-1H-pyrazol-3-yl)bicyclo[4.1.0]heptane-3-carboxamide], the IC50 on human cathepsin K turned out to be 1.06 nM; at human cathepsin F it was 338 nM.
Take `N#CC1(NC(=O)[C@@H]2CC3CC3C[C@H]2c2nn(-c3ccc(F)cn3)cc2-c2ccc(N3CCS(=O)(=O)CC3)cc2)CC1` (single isomer, unassigned) [Example 153, (1R,3R,4R,6S) or (1S,3R,4R,6R)-N-(1-cyanocyclopropyl)-4-(4-(4-(1,1-dioxidothiomorpholino)phen-yl)-1-(5-fluoropyridin-2-yl)-1H-pyrazol-3-yl)bicyclo[4.1.0]heptane-3-carboxamide]: the IC50 at human cathepsin K came out at 0.66 nM; on human cathepsin F, 265 nM.
On the same counts, the results for `N#CC1(NC(=O)[C@@H]2CC3CC3C[C@H]2c2nn(-c3ccc(Cl)cn3)cc2-c2ccc(N3CCS(=O)(=O)CC3)cc2)CC1` (single isomer, unassigned) [Example 154, (1R,3R,4R,6S) or (1S,3R,4R,6R)-4-(1-(5-chloropyridin-2-yl)-4-(4-(1,1-dioxidothiomorpholino)phen-yl)-1H-pyrazol-3-yl)-N-(1-cyanocyclopropyl)bicyclo [4.1.0]heptane-3-carboxamide] are 0.74 nM and 279 nM.
For `N#CC1(NC(=O)[C@@H]2CC3CC3C[C@H]2c2nn(-c3ccc(Cl)cn3)cc2-c2ccc(N3CCS(=O)(=O)CC3)cc2)CC1` (single isomer, unassigned) [Example 155], in that order: 0.56 nM and 197 nM.
For the compound `N#CC1CCN(c2ccc(-c3cn(-c4ccc(F)cc4)nc3[C@@H]3CCCC[C@H]3C(=O)NC3(C#N)CC3)cc2)CC1` [Example 1, (1R,2R)—N-(1-Cyanocyclopropyl)-2-(4-(4-(4-cyanopiperidin-1-yl)phenyl)-1-(4-fluorophenyl)-1H-pyrazol-3-yl)cyclohexanecarboxamide], the figures for the IC50 on human cathepsin K and on human cathepsin F were 2.72 nM and 698 nM, respectively.

(Values after patent US9656990B2, “Cathepsin cysteine protease inhibitors” (Merck Sharp & Dohme Corp., priority 2014, dated 2017).)
